Measurements published in US10159254B2, “Weed control methods” (Syngenta Participations AG, priority 2013, dated 2018).
Values joined by “and” are separate entries in the source; they are usually repeats but may differ in a detail not shown here. Equal values may be shown once.

Legend:
[1] = test system: HPPD-tolerant soybean event SYHT04R; assay: Glasshouse: post-emergence HPPD herbicide damage with or without Sequestrene 138Fe, 7 DAA; type: in vivo; settings: isoxaflutole, tembotrione
Protocol: (§1) Safening of Various HPPD-inhibiting Herbicides in HPPD-tolerant Soybean Events SYHT04R and SYHT0H2
(§2) An experiment is performed to determine whether the addition of chelating iron to the spray formulation can mitigate foliar bleaching injury from the HPPD herbicides mesotrione, bicyclopyrone, tembotrione, isoxaflutole, topramezone and pyrasulfatole when applied post-emergence to the HPPD-tolerant soybean events SYHT04R and SYHT0H2.
(§3) Soybean plants are grown in a glasshouse (24° C. day, 18° C. night; 65% relative humidity; 16 hour photoperiod). Two replicates are utilised in respect of SYHT0H2 (growth stage V1-V3) and three replicates are utilised in respect of SYHT04R (growth stage V1 to V3). Spray applications are applied post-emergence at […]. Herbicide damage was assessed 7 DAA (Days After Application).

[2] = test system: HPPD-tolerant soybean event SYHT0H2; assay: as above; type: in vivo; settings: isoxaflutole, tembotrione
Protocol: as §1, §2, §3

[3] = test system: SYHT0H2 soybeans; assay: Greenhouse: Sequestrene 138Fe rate series, percent injury from HPPD-inhibitors at 7 DAT; type: in vivo, soybean; settings: mesotrione 420, bicyclopyrone 200, tembotrione 368, topramezone 72 g/ha
Protocol: Effect of Sequestrene® 138Fe on Percent Injury from Various HPPD-inhibitors on SYHT0H2 Soybeans. Injury Assessed at Seven Days after Treatment (7 DAT)
SYHT0H2 soybeans are grown in 4×4-inch pots filled with a greenhouse potting mix. When the plants reach the V2-V3 growth stage, they are treated with an HPPD inhibitor applied alone or in a tank mixture with Sequestrene 138Fe at various rates ranging from 140 g product/ha (equivalent to 8.4 g iron/ha) to 2240 g product/ha (equivalent to 134 g iron/ha).

[4] = test system: SYHT0H2 soybeans; assay: Greenhouse: water-soluble iron compounds safening mesotrione, maximum injury; settings: mesotrione 420 g ai/ha, additive none; maximum injury of 6, 9, 16 days after treatment
Protocol: An experiment is conducted to look at the safening effect of a variety of water-soluble iron-containing compounds. SYHT0H2 soybean plants are grown in small pots filled with a greenhouse potting mix. […] In all cases, mesotrione was applied at 420 g ai/ha and all treatments contained liquid ammonium sulphate at 2.5% v/v and NIS at 0.25% v/v. The application rates of iron-containing compounds indicated are iron equivalent rates. […] Percent injury levels were assessed 6, 9, and 16 days after treatment. Data presented are maximum injury occurring from any of the treatments at any time during the experiment.

[5] = test system: SYHT04R soybeans; assay: Greenhouse: Sequestrene 138Fe safening of HPPD-inhibitors, injury 6 days after treatment; type: in vivo, soybean; settings: 6 days after treatment (maximum injury), mesotrione 420, bicyclopyrone 200, isoxaflutole 280 g/ha
Protocol: Effect of Sequestrene® 138Fe on Various HPPD-inhibitors in SYHT04R Soybeans. Maximum Injury Assessed 6 Days after Treatment
A greenhouse experiment is conducted to determine if Sequestrene® 138Fe was effective in safening various other HPPD herbicide-tolerant soybean events, such as SYHT04R.
SYHT04R soybean plants are grown in 4×4-inch pots filled with a greenhouse potting mix. When the plants reached the V2-V3 growth stage, they are sprayed with an HPPD inhibitor alone or in combination with Sequestrene® 138Fe at 1120 g/ha (equivalent to 67.2 g iron/ha). […] Observations on percent injury are recorded at 6 and 20 days after treatment. Data presented is from the 6 days after treatment rating representing the maximum injury observed during the experiment.

[6] = test system: untransformed clonal tobacco plants (WT); assay: Wild type tobacco herbicide damage, mesotrione with or without Sequestrene 138; type: in vivo, Nicotiana tabacum cv Samsun (tobacco)
Protocol: Effect of Iron Chelates in Mitigating Foliar Bleaching Injury from HPPD Inhibiting Herbicides Across Various Transgenic HPPD Tolerant Tobacco Events Over-expressing HPPD Genes from Different Origins
This experiment is carried out to determine whether iron chelates can mitigate the bleaching injury from HPPD inhibiting herbicides across various transgenic HPPD tolerant tobacco events over-expressing HPPD genes from different origins. These experiments are conducted using three distinct HPPD-overexpressing Nicotiana tabacum cv Samsun (tobacco) lines, one over-expressing wheat HPPD, one overexpressing an Avena HPPD and one over-expressing a HPPD from a bacterial source, Pseudomonas florescens. For each transgenic line, five identical clonal plants were sprayed with each herbicide treatment. Two untransformed clonal tobacco plants are also sprayed ([…]) with each herbicide treatment. Assessments are carried out 3, 7 and 14 days after herbicide application.
All scores represent average % herbicide damage. […] An equivalent safening effect is not observed when the same chemical treatments are applied to wild type plants.

[7] = Sequestrene 138Fe 1000 g/ha, g ai/ha: mesotrione 200, bicyclopyrone, pyrasulfatole 100, topramazone 50
[8] = Sequestrene 138Fe 1000 g/ha, g ai/ha: mesotrione 800, bicyclopyrone, pyrasulfatole 400, topramazone 200
[9] = no Sequestrene 138Fe, g ai/ha: mesotrione 200, bicyclopyrone, pyrasulfatole 100, topramazone 50
[10] = no Sequestrene 138Fe, g ai/ha: mesotrione 800, bicyclopyrone, pyrasulfatole 400, topramazone 200

Compound: CS(=O)(=O)c1ccc(C(=O)C2C(=O)CCCC2=O)c([N+](=O)[O-])c1 [Mesotrione, mesotrione]
- Herbicide damage SYHT04R [1, 7]: 2
- Herbicide damage SYHT04R [1, 8]: 17
- Herbicide damage SYHT04R [1, 9]: 8
- Herbicide damage SYHT04R [1, 10]: 32
- Herbicide damage SYHT0H2 [2, 7]: 3
- Herbicide damage SYHT0H2 [2, 8]: 18
- Herbicide damage SYHT0H2 [2, 9]: 13
- Herbicide damage SYHT0H2 [2, 10]: 23
- % Injury ([3]; Sequestrene 138Fe 0 g/ha): 15%
- % Injury ([3]; Sequestrene 138Fe 140 g/ha tank mix): 13%
- % Injury ([3]; Sequestrene 138Fe 280 g/ha tank mix): 2%
- % Injury ([3]; Sequestrene 138Fe 560 g/ha tank mix): 1%
- % Injury ([3]; Sequestrene 138Fe 1120 g/ha tank mix): 0%
- % Injury ([3]; Sequestrene 138Fe 2240 g/ha tank mix): 0%
- % Injury [4]: 17%
- % Injury ([5]; Sequestrene 138Fe 0 g/ha): 23%
- % Injury ([5]; Sequestrene 138Fe 1120 g/ha): 3%
- % herbicide damage ([6]; Trt 1: mesotrione 50 gai/ha alone, 3DAA): 60% and 65%
- % herbicide damage ([6]; Trt 1: mesotrione 50 gai/ha alone, 7DAA): 80%
- % herbicide damage ([6]; Trt 1: mesotrione 50 gai/ha alone, 14DAA): 85%
- % herbicide damage ([6]; Trt 2: mesotrione 100 gai/ha alone, 3DAA): 70%
- % herbicide damage ([6]; Trt 2: mesotrione 100 gai/ha alone, 7DAA): 80%
- % herbicide damage ([6]; Trt 2: mesotrione 100 gai/ha alone, 14DAA): 85% and 90%
- % herbicide damage ([6]; Trt 3: mesotrione 150 gai/ha alone, 3DAA): 55% and 60%
- % herbicide damage ([6]; Trt 3: mesotrione 150 gai/ha alone, 7DAA): 80%
- % herbicide damage ([6]; Trt 3: mesotrione 150 gai/ha alone, 14DAA): 85%
- % herbicide damage ([6]; Trt 4: mesotrione 50 gai/ha + Sequestrene 138 1000 g/ha, 3DAA): 50%
- % herbicide damage ([6]; Trt 4: mesotrione 50 gai/ha + Sequestrene 138 1000 g/ha, 7DAA): 80%
- % herbicide damage ([6]; Trt 4: mesotrione 50 gai/ha + Sequestrene 138 1000 g/ha, 14DAA): 70% and 75%
- % herbicide damage ([6]; Trt 5: mesotrione 100 gai/ha + Sequestrene 138 1000 g/ha, 3DAA): 60%
- % herbicide damage ([6]; Trt 5: mesotrione 100 gai/ha + Sequestrene 138 1000 g/ha, 7DAA): 80%
- % herbicide damage ([6]; Trt 5: mesotrione 100 gai/ha + Sequestrene 138 1000 g/ha, 14DAA): 75% and 85%
- % herbicide damage ([6]; Trt 6: mesotrione 150 gai/ha + Sequestrene 138 1000 g/ha, 3DAA): 60%
- % herbicide damage ([6]; Trt 6: mesotrione 150 gai/ha + Sequestrene 138 1000 g/ha, 7DAA): 80%
- % herbicide damage ([6]; Trt 6: mesotrione 150 gai/ha + Sequestrene 138 1000 g/ha, 14DAA): 85%
- % herbicide damage ([6]; Trt 7: mesotrione 200 gai/ha alone, 3DAA): 60%
- % herbicide damage ([6]; Trt 7: mesotrione 200 gai/ha alone, 7DAA): 80%
- % herbicide damage ([6]; Trt 7: mesotrione 200 gai/ha alone, 14DAA): 85%
- % herbicide damage ([6]; Trt 8: mesotrione 300 gai/ha alone, 3DAA): 65%
- % herbicide damage ([6]; Trt 8: mesotrione 300 gai/ha alone, 7DAA): 80%
- % herbicide damage ([6]; Trt 8: mesotrione 300 gai/ha alone, 14DAA): 90% and 85%
- % herbicide damage ([6]; Trt 9: mesotrione 400 gai/ha alone, 3DAA): 55% and 60%
- % herbicide damage ([6]; Trt 9: mesotrione 400 gai/ha alone, 7DAA): 80%
- % herbicide damage ([6]; Trt 9: mesotrione 400 gai/ha alone, 14DAA): 85%
- % herbicide damage ([6]; Trt 10: mesotrione 200 gai/ha + Sequestrene 138 1000 g/ha, 3DAA): 55% and 60%
- % herbicide damage ([6]; Trt 10: mesotrione 200 gai/ha + Sequestrene 138 1000 g/ha, 7DAA): 80%
- % herbicide damage ([6]; Trt 10: mesotrione 200 gai/ha + Sequestrene 138 1000 g/ha, 14DAA): 85%
- % herbicide damage ([6]; Trt 11: mesotrione 300 gai/ha + Sequestrene 138 1000 g/ha, 3DAA): 50% and 60%
- % herbicide damage ([6]; Trt 11: mesotrione 300 gai/ha + Sequestrene 138 1000 g/ha, 7DAA): 80%
- % herbicide damage ([6]; Trt 11: mesotrione 300 gai/ha + Sequestrene 138 1000 g/ha, 14DAA): 90% and 85%
- % herbicide damage ([6]; Trt 12: mesotrione 400 gai/ha + Sequestrene 138 1000 g/ha, 3DAA): 55% and 60%
- % herbicide damage ([6]; Trt 12: mesotrione 400 gai/ha + Sequestrene 138 1000 g/ha, 7DAA): 80%
- % herbicide damage ([6]; Trt 12: mesotrione 400 gai/ha + Sequestrene 138 1000 g/ha, 14DAA): 90% and 85%
- % herbicide damage ([6]; Trt 13: mesotrione 400 gai/ha alone, 3DAA): 50% and 55%
- % herbicide damage ([6]; Trt 13: mesotrione 400 gai/ha alone, 7DAA): 80%
- % herbicide damage ([6]; Trt 13: mesotrione 400 gai/ha alone, 14DAA): 95% and 90%
- % herbicide damage ([6]; Trt 14: mesotrione 500 gai/ha alone, 3DAA): 55% and 60%
- % herbicide damage ([6]; Trt 14: mesotrione 500 gai/ha alone, 7DAA): 80%
- % herbicide damage ([6]; Trt 14: mesotrione 500 gai/ha alone, 14DAA): 85%
- % herbicide damage ([6]; Trt 15: mesotrione 600 gai/ha alone, 3DAA): 55%
- % herbicide damage ([6]; Trt 15: mesotrione 600 gai/ha alone, 7DAA): 80%
- % herbicide damage ([6]; Trt 15: mesotrione 600 gai/ha alone, 14DAA): 85%
- % herbicide damage ([6]; Trt 16: mesotrione 400 gai/ha + Sequestrene 138 1000 g/ha, 3DAA): 60% and 55%
- % herbicide damage ([6]; Trt 16: mesotrione 400 gai/ha + Sequestrene 138 1000 g/ha, 7DAA): 80%
- % herbicide damage ([6]; Trt 16: mesotrione 400 gai/ha + Sequestrene 138 1000 g/ha, 14DAA): 90% and 95%
- % herbicide damage ([6]; Trt 17: mesotrione 500 gai/ha + Sequestrene 138 1000 g/ha, 3DAA): 50% and 60%
- % herbicide damage ([6]; Trt 17: mesotrione 500 gai/ha + Sequestrene 138 1000 g/ha, 7DAA): 80%
- % herbicide damage ([6]; Trt 17: mesotrione 500 gai/ha + Sequestrene 138 1000 g/ha, 14DAA): 90%
- % herbicide damage ([6]; Trt 18: mesotrione 600 gai/ha + Sequestrene 138 1000 g/ha, 3DAA): 55%
- % herbicide damage ([6]; Trt 18: mesotrione 600 gai/ha + Sequestrene 138 1000 g/ha, 7DAA): 80%
- % herbicide damage ([6]; Trt 18: mesotrione 600 gai/ha + Sequestrene 138 1000 g/ha, 14DAA): 90% and 85%
